Reference: PubChem BioAssay AID192 (DTP/NCI, 2004)
Inconclusive results and toxic doses are left out. How the source made its calls: active means survival T/C of 150% or more; inactive means T/C below 125% in these data. Numbered stars: 1 amine (or outer) side, 2 acyl side, 3 side chain; on linkers, the order of the positions; unused ones are H or OH. Bridge positions count the residues as written; N and C are the ends. Square brackets hold non-standard residues; d marks the D form. Peptide text beside a SMILES is read from it. I, II: the chains in the order shown. Actinocin(1to9) = Cc1c2oc3c(C)ccc(C(=O)[*:2])c3nc-2c(C(=O)[*:1])c(N)c1=O; NMeV = CN[CH](C(=O)O)C(C)C; Sar = CNCC(=O)O

System: BDF1 mice, B16 melanoma ip, median survival T/C
Experiment: NCI In Vivo Anticancer Drug Screen. Data for tumor model B16 Melanoma (intraperitoneal) in B6D2F1 (BDF1) mice
Details: endpoint: median survival time, higher = longer survival
In short: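 Each result divides a survival or tumor-size measurement in the compound-treated group by the same measurement in the vehicle group.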

[1] = dose: 50.0 mg/kg/injection, schedule: Q01DX009 (ip), vehicle: saline
[2] = dose: 100.0 mg/kg/injection, schedule: Q01DX009 (ip), vehicle: saline
[3] = dose: 200.0 mg/kg/injection, schedule: Q01DX009 (ip), vehicle: saline
[4] = dose: 50.0 mg/kg/injection, schedule: Q01DX009 (ip), vehicle: saline with Tween-80
[5] = dose: 100.0 mg/kg/injection, schedule: Q01DX009 (ip), vehicle: saline with Tween-80
[6] = dose: 3.12 mg/kg/injection, schedule: Q01DX009 (ip), vehicle: Klucel (hydroxypropylcellulose) (HPC)
[7] = dose: 6.25 mg/kg/injection, schedule: Q01DX009 (ip), vehicle: Klucel (hydroxypropylcellulose) (HPC)
[8] = dose: 12.5 mg/kg/injection, schedule: Q01DX009 (ip), vehicle: Klucel (hydroxypropylcellulose) (HPC)
[9] = dose: 25.0 mg/kg/injection, schedule: Q01DX009 (ip), vehicle: Klucel (hydroxypropylcellulose) (HPC)
[10] = dose: 12.5 mg/kg/injection, schedule: Q01DX009 (ip), vehicle: saline
[11] = dose: 25.0 mg/kg/injection, schedule: Q01DX009 (ip), vehicle: saline
[12] = dose: 200.0 mg/kg/injection, schedule: Q01DX009 (ip), vehicle: saline with Tween-80

Measured: T/C

O=C1C=C(N2CC2)C(=O)C(N2CC2)=C1N1CC1
inactive: dose: 1.0 micrograms/kg/injection, schedule: Q01DX009 (ip), vehicle: saline 111 % of control | dose: 3.0 micrograms/kg/injection, schedule: Q01DX009 (ip), vehicle: saline 109 % of control | dose: 6.0 micrograms/kg/injection, schedule: Q01DX009 (ip), vehicle: saline 109 % of control | dose: 12.0 micrograms/kg/injection, schedule: Q01DX009 (ip), vehicle: saline 118 % of control

CC(C)(C)OC(=O)NC(CCC(N)=O)C(=O)O (centres undefined)
inactive: [1] 96 % of control | [2] 97 % of control | [3] 96 % of control

CCc1ccccc1NC(=O)C(c1ccccc1)c1ccccc1
inactive: dose: 25.0 mg/kg/injection, schedule: Q01DX009 (ip), vehicle: saline with Tween-80 99 % of control | [4] 97 % of control | [5] 92 % of control

CCC(C)C1NC(=O)C(NC(=O)c2c3nc4c(C(=O)NC5C(=O)NC(C(C)C)C(=O)N6CCCC6C(=O)N(C)CC(=O)N(C)C(C(C)C)C(=O)OC5C)ccc(C)c4oc-3c(C)c(=O)c2N)C(C)OC(=O)C(C(C)C)N(C)C(=O)CN(C)C(=O)C2CCCN2C1=O (centres undefined) (I: TIP[Sar][NMeV] / II: TVP[Sar][NMeV]; ester I:1-I:C, II:1-II:C; linker I:N-II:N via Actinocin(1to9); configuration not given here)
inactive: dose: 0.2 mg/kg/injection, schedule: Q01DX001 (ip), vehicle: water 116 % of control | dose: 12.5 micrograms/kg/injection, schedule: Q01DX009 (ip), vehicle: water 117 % of control | dose: 25.0 micrograms/kg/injection, schedule: Q01DX009 (ip), vehicle: water 116 % of control | dose: 75.0 micrograms/kg/injection, schedule: Q04DX003 (ip), vehicle: water 119 % of control

C(=N\C(/N=C/c1ccco1)c1ccco1)/c1ccco1
inactive: dose: 40.0 mg/kg/injection, schedule: Q01DX009 (ip), vehicle: Klucel (hydroxypropylcellulose) (HPC) 94 % of control | dose: 80.0 mg/kg/injection, schedule: Q01DX009 (ip), vehicle: Klucel (hydroxypropylcellulose) (HPC) 89 % of control | dose: 160.0 mg/kg/injection, schedule: Q01DX009 (ip), vehicle: Klucel (hydroxypropylcellulose) (HPC) 97 % of control | dose: 320.0 mg/kg/injection, schedule: Q01DX009 (ip), vehicle: Klucel (hydroxypropylcellulose) (HPC) 92 % of control

O=C1C(=O)C(Cl)=C(Cl)C(Cl)=C1Cl
inactive: dose: 0.75 mg/kg/injection, schedule: Q01DX009 (ip), vehicle: saline 106 % of control | dose: 1.5 mg/kg/injection, schedule: Q01DX009 (ip), vehicle: saline 93 % of control | dose: 3.0 mg/kg/injection, schedule: Q01DX009 (ip), vehicle: saline 93 % of control

O=C(CBr)c1ccc(F)cc1
inactive: [6] 106 % of control | [7] 91 % of control | [8] 99 % of control

CC(C)Oc1ccc2c(c1)N(CCC1CCCCN1)c1ccccc1S2 (centres undefined)
inactive: dose: 1.56 mg/kg/injection, schedule: Q01DX009 (ip), vehicle: Klucel (hydroxypropylcellulose) (HPC) 97 % of control | [6] 98 % of control | [7] 112 % of control | [8] 91 % of control | [9] 86 % of control

C[CH2][Pb]([CH2]C)([CH2]C)[O]C(=O)c1ccc(N)cc1
inactive: dose: 0.75 mg/kg/injection, schedule: Q01DX009 (ip), vehicle: Klucel (hydroxypropylcellulose) (HPC) 111 % of control | dose: 1.5 mg/kg/injection, schedule: Q01DX009 (ip), vehicle: Klucel (hydroxypropylcellulose) (HPC) 111 % of control | dose: 3.0 mg/kg/injection, schedule: Q01DX009 (ip), vehicle: Klucel (hydroxypropylcellulose) (HPC) 108 % of control | dose: 6.0 mg/kg/injection, schedule: Q01DX009 (ip), vehicle: Klucel (hydroxypropylcellulose) (HPC) 111 % of control | dose: 12.0 mg/kg/injection, schedule: Q01DX009 (ip), vehicle: Klucel (hydroxypropylcellulose) (HPC) 105 % of control

CC(N)Cc1ccc2c(c1)OCO2 (centres undefined)
inactive: dose: 3.12 mg/kg/injection, schedule: Q01DX009 (ip), vehicle: saline 119 % of control | dose: 6.25 mg/kg/injection, schedule: Q01DX009 (ip), vehicle: saline 116 % of control | [10] 102 % of control | [11] 108 % of control | [1] 116 % of control

O=C1C=CC(=O)c2c(Cl)ccc(O)c21
inactive: dose: 0.63 mg/kg/injection, schedule: Q01DX009 (ip), vehicle: Klucel (hydroxypropylcellulose) (HPC) 90 % of control | dose: 1.25 mg/kg/injection, schedule: Q01DX009 (ip), vehicle: Klucel (hydroxypropylcellulose) (HPC) 95 % of control

NCCC(=O)OC1CCCc2c(O)c3c(c(O)c21)C(=O)c1ccccc1C3=O (centres undefined)
inactive: [10] 96 % of control | [11] 100 % of control | [1] 93 % of control

CCC(C)C1CCCCC1 (centres undefined)
inactive: dose: 100.0 mg/kg/injection, schedule: Q01DX009 (ip), vehicle: Klucel (hydroxypropylcellulose) (HPC) 91 % of control | dose: 200.0 mg/kg/injection, schedule: Q01DX009 (ip), vehicle: Klucel (hydroxypropylcellulose) (HPC) 108 % of control | dose: 400.0 mg/kg/injection, schedule: Q01DX009 (ip), vehicle: Klucel (hydroxypropylcellulose) (HPC) 98 % of control

C1=CCOCOC1
inactive: dose: 12.5 mg/kg/injection, schedule: Q04DX003 (ip), vehicle: saline 96 % of control | dose: 25.0 mg/kg/injection, schedule: Q04DX003 (ip), vehicle: saline 107 % of control | dose: 50.0 mg/kg/injection, schedule: Q04DX003 (ip), vehicle: saline 93 % of control

CCCCCCCCCOCCOCCOCCN
inactive: dose: 12.5 mg/kg/injection, schedule: Q04DX003 (ip), vehicle: Klucel (hydroxypropylcellulose) (HPC) 98 % of control | dose: 25.0 mg/kg/injection, schedule: Q04DX003 (ip), vehicle: Klucel (hydroxypropylcellulose) (HPC) 90 % of control

CC(C)(C)C1CC(C(F)(F)F)(C(F)(F)F)OS(=O)O1 (centres undefined)
inactive: dose: 1.56 mg/kg/injection, schedule: Q04DX003 (ip), vehicle: saline 102 % of control | dose: 3.13 mg/kg/injection, schedule: Q04DX003 (ip), vehicle: saline 115 % of control | dose: 6.25 mg/kg/injection, schedule: Q04DX003 (ip), vehicle: saline 105 % of control

Brc1ccc2c(c1)-c1ccccc1C1=NCCN12
inactive: dose: 2.5 mg/kg/injection, schedule: Q01DX009 (ip), vehicle: Klucel (hydroxypropylcellulose) (HPC) 118 % of control | dose: 5.0 mg/kg/injection, schedule: Q01DX009 (ip), vehicle: Klucel (hydroxypropylcellulose) (HPC) 103 % of control | dose: 5.0 mg/kg/injection, schedule: Q04DX003 (ip), vehicle: saline with Tween-80 100 % of control | dose: 10.0 mg/kg/injection, schedule: Q01DX009 (ip), vehicle: Klucel (hydroxypropylcellulose) (HPC) 93 % of control | dose: 10.0 mg/kg/injection, schedule: Q04DX003 (ip), vehicle: saline with Tween-80 102 % of control | dose: 10.0 mg/kg/injection, schedule: Q04DX003 (ip), vehicle: saline 105 % of control | dose: 20.0 mg/kg/injection, schedule: Q04DX003 (ip), vehicle: saline with Tween-80 100 % of control

O=[N+]([O-])c1ccc2c(N=Nc3c(O)ccc4ccccc34)c(O)cc(S(=O)(=O)O)c2c1
inactive: [5] 106 % of control | [12] 102 % of control

OC1CC2CC1C1C=CCC21 (centres undefined)
inactive: [4] 95 % of control | [5] 95 % of control | [12] 90 % of control

C[N+]1(C)C2CC(=O)CC1C1CC12 (centres undefined) (tested in a mixture with another compound)
inactive: [11] 102 % of control | [1] 89 % of control | [2] 99 % of control | [3] 100 % of control

Cc1ccc(NC(=O)NC(C)C)c(C)c1
inactive: [7] 101 % of control | [8] 95 % of control | [9] 94 % of control
